Experiments:
[1] = system: M21 (αvβ3+), HN (αvβ6+), RKO (α5β1+) cells; assay: Time-dependent cellular uptake of Cy5.5-labeled ligands in cells overexpressing the targeted integrin; type: cell-based; conditions: state within 30 min, Cy5.5-conjugated ligands, target integrin-expressing cells
From the text: For intracellular drug delivery, integrin ligands designed as drug-conjugated vehicles have to be easily and selectively internalized by tumor cells (over)expressing the respective targeted integrin subtype. […] It should be noted here that HN, OV-MZ-6, and RKO cells also express low αvβ3 expression levels.
Figure 7 Cellular uptake of Cy5.5-labeled integrin ligands. […] Nuclei were costained with Hoechst 33342 (blue signal) and cell membranes with CellMask Green (green signal). Merge of stains (yellow signal) indicated colocalization of ligands at the cell membrane. Scale bar: 50 μm.
Microchamber cell culture slides were coated with fibronectin (2 μg/mL), followed by cell seeding at a density of 50,000 cells/well. After 24 h of cultivation, cells were treated with integrin ligands L1-Cy5.5 to L5-Cy5.5 (1 μM in 0.01% (w/v) CaCl2 and 0.1% (w/v) BSA in PBS; 250 μL/well) for 3, 30, 60, or 300 min at 37 °C. The cells were washed in PBS/0.01% (w/v) CaCl2 (6 × 800 μL) and the fluorescence signal intensity recorded using the LSM 700 microscope (Zeiss, Jena, Germany). CellMask Green Plasma Membrane Stain was used to stain the cell membrane; nuclei were stained with Hoechst 33342.

human αvβ3-integrin = molecular target: T1, human αvβ3-integrin (Homo sapiens, UniProt P05106+P06756); assay: ELISA-type solid-phase binding assay: soluble αvβ3 competing for immobilized vitronectin; conditions: competitive ELISA-type assay, referenced to internal standard cilengitide (L2)
T1 construct: purchased R&D 3050-AV-050

[2] = system: FAK, p-FAK, p44/42erk-1/2, p-p44/42erk-1/2 in αvβ3+ M21 cells; assay: Western blot of FAK and p44/42erk-1/2 expression and activation, M21 cells; type: cell-based
Procedure: Since agonistic ligand performance requires integrin activation and signaling, by Western blot analysis, we studied whether the different ligands alter the expression levels and activation states of FAK and p44/42^(erk-1/2). For this, the respective target integrin-expressing tumor cell types were incubated with the corresponding subtype-selective ligand at a concentration of 1 μM for 24 h (Figure 8). […] Signal intensities of FAK and p44/42^(erk-1/2) expression and activation (p-FAK and p-p44/42^(erk-1/2)) on Western blots were evaluated by densitometry. Data are depicted as GAPDH-normalized fluorescence signal intensities as n-fold, by setting values obtained for the respective untreated cells to “1”. […] MAPK p44/42^(erk-1/2) expression was approximately 2.2-fold augmented, p44/42^(erk-1/2) by approximately 2.5-fold. It also raised activation of p-FAK and p-p44/42^(erk-1/2) by approximately 2.2-fold and 3.1-fold, respectively, in α5β1+ OV-MZ-6 cells. […] Additionally, it raised FAK (approximately 1.7-fold) and p-p44/42^(erk-1/2) (approximately 2.4-fold) in α5β1+ OV-MZ-6 cells.
Figure 8 Effects of ligands on cellular expression and activation of integrin-related signaling molecules FAK and p44/42^(erk-1/2). […] Signal intensities for FAK and p-FAK, respectively, were evaluated by use of the Bio-Rad Imager Gel Doc XR+ and a ChemiDoc XRS+ Systems and the software Image Lab. Shown are typical representative Western blot images and the corresponding histograms depicting GAPDH-normalized signal intensities as n-fold by setting the values obtained for untreated cells to “1” (drawn as black line). For each cell line, cutouts of identical gels are depicted.
In order to capture early and transient changes in signaling activation following ligand treatment, we next reduced the observation periods to 5, 30, or 60 min and assessed FAK expression and activation. […] Depicted are typical Western blot images and the corresponding densitometrical evaluations of GAPDH-normalized signal intensities as n-fold, by setting that of the respective untreated cell type to “1” (Figure 9). […]
The kinases (p-)p44/42^(erk-1/2) and (p-)FAK were detected as previously published.[15],[8] Briefly, cells were grown for 18 h on six-well plates in DMEM (0.45 Mio cells/well). After medium exchange, fresh medium with L1–L5 (concentration: 1.0 μM, 2 mL/well) was added, and cells were incubated for another 24 h at 37 °C. In a second series, cells were incubated with L1–L5 (1 μM or 1 nM) for 5, 30, or 60 min. Thereafter, the cellular proteins were extracted and processed by Western blotting. Proteins were visualized using the Pierce ECL chemiluminescent substrate (Thermo Fisher Scientific). Band signal intensities for (p-)p44/42^(erk-1/2) and (p-)FAK were evaluated using the Bio-Rad Imager Gel Doc XR + and ChemiDoc XRS + Systems and the software Image Lab. Differences in protein loading and blotting efficiency were normalized by reprobing the membranes with a monoclonal antibody directed to GAPDH. Signal intensities for protein bands of interest were normalized to those recorded for GAPDH. Typical Western blot images are depicted together with histograms summarizing the mean values of normalized fluorescence signal intensities as n-fold, by setting those obtained for untreated cells to “1”.

Compound: C#CCCC(=O)NCCCOc1ccc(C(=O)N[C@H](CC(=O)O)Cc2ccc(OCCCNc3cc(OC)ccn3)cc2)cc1 [L1, (S)-4-(4-(3-((4-Methoxypyridin-2-yl)amino)propoxy)phenyl)-3-(4-(3-(pent-4-ynamido)propoxy)benzamido)butanoic Acid]
- Endocytosis of Cy5.5-conjugated ligand [1]: started within 30 min
- IC50 (human αvβ3-integrin): 1.1 ± 0.27 nM
- FAK expression versus untreated cells ([2]; 1 nM, 5, 30 or 60 min): transient and slight increase
- p-FAK expression ([2]; 1 nM, 5, 30 or 60 min): always prominently higher than that at 1 μM
- FAK expression versus untreated cells ([2]; 1 μM, 5, 30 or 60 min): remained below that in untreated cells
- FAK expression, n-fold of untreated cells ([2]; 1 μM, 24 h, GAPDH-normalized): doubled
- p-FAK expression, n-fold of untreated cells ([2]; 1 μM, 24 h, GAPDH-normalized): slightly reduced

Compound: C#CCCC(=O)NCCCOc1cc(C)c(C(=O)N[C@@H](CNC(=O)CNC(=O)c2cccc(NC(=N)N)c2)C(=O)O)c(C)c1 [L5, (S)-2-(2,6-Dimethyl-4-(3-(pent-4-ynamido)propoxy)benzamido)-3-(2-(3-guanidinobenzamido)acetamido)propanoic Acid]
- IC50 (human αvβ3-integrin): > 1000 nM
- (p-)p-44/42erk-1/2 ([2]; 1 μM, 24 h): unexpectedly increased
- p-FAK levels versus untreated cells ([2]; both concentrations (1 nM, 1 μM), up to 60 min): equal or slightly higher than those in untreated cells

Compound: c(FRGDLAFp(NMe)K) [L3]
- Endocytosis of Cy5.5-conjugated ligand [1]: already completed

Source: paper PMC11874007, “Switching Roles—Exploring Concentration-Dependent Agonistic versus Antagonistic Behavior of Integrin Ligands” (Journal of Medicinal Chemistry, 2025)
